In ChEMBL document CHEMBL1151462, “Mosaic tetracycline resistance genes and their flanking regions in Bifidobacterium thermophilum and Lactobacillus johnsonii” (2008):
Converted amounts (≈) assume the structure as drawn.

Key:
Type in all cases: functional
[1] = test system: Bifidobacterium thermophilum; assay: Antibacterial activity against Bifidobacterium thermophilum B0219 by broth microdilution method
[2] = test system: Bifidobacterium thermophilum; assay: Antibacterial activity against Bifidobacterium thermophilum B0241 by broth microdilution method
[3] = test system: Bifidobacterium thermophilum; assay: Antibacterial activity against Bifidobacterium thermophilum B0242 by broth microdilution method
[4] = test system: Bifidobacterium thermophilum; assay: Antibacterial activity against Bifidobacterium thermophilum B0253 by broth microdilution method
[5] = test system: Bifidobacterium thermophilum; assay: Antibacterial activity against Bifidobacterium thermophilum B0256 by broth microdilution method
[6] = test system: Lactobacillus johnsonii; assay: Antibacterial activity against Lactobacillus johnsonii L0077 by Etest

MIC [1]: 128 µg/mL (≈ 288 µM) | MIC [2]: 128 µg/mL (≈ 288 µM) | MIC [3]: 256 µg/mL (≈ 576 µM) | MIC [4]: 128 µg/mL (≈ 288 µM) | MIC [5]: 128 µg/mL (≈ 288 µM) | MIC [6]: > 256 µg/mL
SMILES: CN(C)[C@@H]1C(O)=C(C(N)=O)C(=O)[C@@]2(O)C(O)=C3C(=O)c4c(O)cccc4[C@@](C)(O)[C@H]3C[C@@H]12 [TETRACYCLINE]
